The results in this text go back to paper PMC9030691, “Toxicokinetics of β-Amanitin in Mice and In Vitro Drug–Drug Interaction Potential” (Pharmaceutics, 2022).

Like-named read-outs stand apart in the source and are kept apart here.

In one data set the target is T1, CYP1A2 (Homo sapiens, UniProt P05177).
T1 construct: from tissue; host or cells: ultrapooled human liver microsomes
T1 sequence (P05177 1-516): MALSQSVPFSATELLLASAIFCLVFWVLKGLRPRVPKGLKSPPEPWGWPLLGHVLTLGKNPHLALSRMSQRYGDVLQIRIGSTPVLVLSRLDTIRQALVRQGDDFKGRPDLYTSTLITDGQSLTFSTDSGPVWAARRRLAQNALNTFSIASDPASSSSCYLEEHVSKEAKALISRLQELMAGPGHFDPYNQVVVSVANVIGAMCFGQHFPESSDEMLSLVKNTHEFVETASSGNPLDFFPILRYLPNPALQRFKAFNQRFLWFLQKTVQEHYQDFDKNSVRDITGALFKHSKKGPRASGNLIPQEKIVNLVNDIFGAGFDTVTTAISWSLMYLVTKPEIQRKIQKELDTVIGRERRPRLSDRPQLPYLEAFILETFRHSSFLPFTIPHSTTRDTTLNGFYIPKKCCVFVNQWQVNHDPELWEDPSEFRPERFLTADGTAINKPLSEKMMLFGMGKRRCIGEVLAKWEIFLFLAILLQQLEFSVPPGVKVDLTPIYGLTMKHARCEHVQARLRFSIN
The experiment in a line: CYP1A2 inhibition in human liver microsomes. The data set is classed as in vitro ADME. Conditions: ultrapooled human liver microsomes 0.2 mg/mL, 50 μM phenacetin, β-amanitin 0.1–100 μM, pH 7.4, 37 °C, 15 min, LC-MS/MS, n = 3, read-out: IC50, CYP1A2 phenacetin O-deethylase. On the procedure: β-amanitin inhibition (IC50 values) of CYP1A2, CYP2A6, CYP2B6, CYP2C8, CYP2C9, CYP2C19, CYP2D6, and CYP3A4 enzyme activities in HLMs were evaluated using LC-MS/MS and CYP substrates as previously described. Each incubation mixture was made up to a volume of 100 μL including HLMs (0.2 mg/mL), 50 mM potassium phosphate buffer (pH 7.4), 1.0 mM NADPH, 10 mM magnesium chloride, various concentrations of β-amanitin (0.1–100 μM), a cocktail of seven CYP probe substrates (50 μM phenacetin for CYP1A2, 2.5 μM coumarin for CYP2A6, 2 μM amodiaquine for CYP2C8, 10 μM diclofenac for CYP2C9, 100 μM [S]-mephenytoin for CYP2C19, 5 μM bufuralol for CYP2D6, and 2.5 μM midazolam for CYP3A4 in acetonitrile), or 50 μM bupropion for CYP2B6. The reactions were initiated with NADPH followed by incubation in a shaking water bath at 37 °C for 15 min with or without 30 min preincubation with NADPH. Reactions were stopped with 50 μL of ice-cold methanol containing ^13C2, ^15N-acetaminophen and d9-1′-hydroxybufuralol (ISs). Incubation mixtures were centrifuged at 13,000× g for 8 min at 4 °C. An aliquot (5 μL) of the supernatant from the reaction mixture was analyzed by the previous LC-MS/MS method.

Another data set has as its system HEK293 control cells. As to the kind of experiment: Uptake of amanitins into HEK293 control cells. It counts as in vitro ADME. Conditions: 50 μM amanitin, 5 min, 37 °C, HBSS, LC-HRMS, n = 3. On the procedure: HEK293 cells overexpressing OCT2, MATE2-K, OAT1, OAT3, OATP1B1, and OATP1B3 transporters and HEK293-control cells were maintained in a humidified atmosphere of 5% CO2 at 37 °C in DMEM supplemented with 10% FBS and 5 mM non-essential amino acids. In the case of HEK293-OATP1B1, -OATP1B3, and MATE2-K cells, 2 mM sodium butyrate was added to the culture medium to enhance transport activity. Cells were seeded at 2 × 10^5 cells/well in poly-D-lysine-coated 24-well plates. After 24 h, the growth medium was discarded, and attached cells were washed with HBSS and preincubated for 20 min in HBSS at 37 °C. Stock solutions of α- and β-amanitin and representative inhibitors of transporters were diluted in HBSS to make the final concentration: cimetidine 1 mM (for OCT2), cimetidine 100 μM (for MATE2-K), probenecid 100 μM (for OAT1 and OAT3), and rifampin 100 μM (for OATP1B1 and OATP1B3). Uptake of 50 μM α- and β-amanitin was measured in the absence and presence of representative inhibitors for 5 min at 37 °C. Plates were placed immediately on ice, and cells were then washed twice with 1 mL of ice-cold HBSS. Residual HBSS was removed thoroughly from the plates. Subsequently, 150 μL of 80% methanol containing IS was added to each sample well, and the cell plates were shaken gently for 20 min at 4 °C. The remaining steps were the same as described for plasma sample preparation.

For the molecule `CC[C@H](C)[C@@H]1NC(=O)CNC(=O)[C@@H]2Cc3c([nH]c4cc(O)ccc34)[S@+]([O-])C[C@H](NC(=O)CNC1=O)C(=O)N[C@@H](CC(=O)O)C(=O)N1C[C@H](O)C[C@H]1C(=O)N[C@@H]([C@@H](C)[C@@H](O)CO)C(=O)N2` [β-amanitin], the IC50 at CYP1A2 (with 30 min NADPH preincubation) and on CYP1A2 (without NADPH preincubation) was over 100 µM in each case. Besides, in the data set on HEK293 control cells, the “Uptake into HEK293 control cells, β- versus α-amanitin” value is “greater than α-amanitin”.

In general, IC50 refers to the point on the concentration scale where inhibition reaches its midpoint.
